# Patent publication US20020132266A1, “Method for modifying and identifying functional sites in proteins” (priority 1998, published 2002)
# {Fluorescein} = fluorescein label
# Target: T1, human α-Thrombin (Homo sapiens, UniProt P00734)
# T1 construct: the light chain and the heavy chain were separated by reverse phase chromatography; gift from Prof; Bode, MPI Martinsried
# Assay: CALI experiment: serine-protease activity of thrombin measured with Chromozym TH after laser irradiation
# Assay type: biochemical
# Details: 0.38 μM thrombin, 0.76 μM aptamer (1:2); argon ion laser 496 nm, 800 mW, 30 seconds per well; percentage of thrombin activity in a non-irradiated control; Chromozym TH substrate
# Description: Complexes were formed by mixing 7.6 μM thrombin with the fluorescein-labeled aptamer (1:2 molar ratio) in 50 mM Tris buffer, pH 8.3, 100 mM NaCl, and an incubation time of 30 min on ice in the dark.
# Control samples were prepared as described above, either omitting the aptamer, using a non-labeled aptamer or an equal concentration of FITC. Subsequently, the solutions were diluted 20-fold with the same buffer. The final concentrations were 0.38 μM thrombin and 0.76 μM aptamer. The samples were pipetted in 100 μl aliquots into wells of a flat bottom 96-well microtiter plate (Nunc A/S, Roskilde, DK), typically 1.2 ml or 12 wells total per sample. The plate was blocked with 1% BSA in PBS for 1 hour and then washed extensively prior to use.
# The serine-protease activity of thrombin was measured using Chromozym TH (Roche Diagnostics GmbH, Mannheim, Germany) as substrate. […] The absorbance increase at 405 nm, due to the cleavage of Chromozym TH into a residual peptide and free […] by thrombin, was followed with the time. The absorbance difference per minute, calculated in the linear range, was used to calculate the thrombin activity in U/ml. […]
substance,measurement,value
"Flu-THR15: fluorescein-labeled, thrombin-specific aptamer, 15-mer oligonucleotide GGTTGGTGTGGTTGG with the fluorescein moiety linked to its 5′ end (DNA, 5' {Fluorescein}, backbone not given here)",thrombin inactivation upon irradiation (CALI effect),55%
